In article PMC9744210, “Discovery of the SHP2 allosteric inhibitor 2-((3R,4R)-4-amino-3-methyl-2-oxa-8-azaspiro[4.5]decan-8-yl)-5-(2,3-dichlorophenyl)-3-methylpyrrolo[2,1-f][1,2,4] triazin-4(3H)-one” (Journal of Enzyme Inhibition and Medicinal Chemistry, 2022):

Target: T1, SHP2 (Homo sapiens, UniProt Q06124)
T1 construct: 6xHis (N, cleaved yes); TEV cleavage site (N, cleaved yes); made in house; host or cells: E. coli BL21 (DE3)
T1 sequence (Q06124 1-525): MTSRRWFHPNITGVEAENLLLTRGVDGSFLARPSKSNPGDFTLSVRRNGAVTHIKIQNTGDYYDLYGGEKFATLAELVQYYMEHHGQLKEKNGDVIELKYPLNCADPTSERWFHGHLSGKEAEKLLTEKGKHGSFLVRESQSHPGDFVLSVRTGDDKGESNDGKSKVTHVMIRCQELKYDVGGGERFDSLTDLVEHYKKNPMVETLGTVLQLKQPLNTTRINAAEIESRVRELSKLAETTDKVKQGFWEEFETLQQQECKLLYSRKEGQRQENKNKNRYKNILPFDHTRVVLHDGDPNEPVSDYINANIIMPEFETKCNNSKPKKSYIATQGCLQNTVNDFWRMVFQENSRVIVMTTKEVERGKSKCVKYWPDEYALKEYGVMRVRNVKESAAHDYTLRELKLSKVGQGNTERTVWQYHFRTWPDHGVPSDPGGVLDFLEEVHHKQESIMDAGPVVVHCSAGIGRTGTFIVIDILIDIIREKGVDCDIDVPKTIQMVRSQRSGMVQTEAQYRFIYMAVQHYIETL
Assay: SHP2 phosphatase activity inhibition, DiFMUP prompt fluorescence assay
Assay type: biochemical
Conditions: 0.5 nM SHP2 activated with 0.125 µM bis-tyrosyl-phosphorylated peptide; substrate DiFMUP 200 μM; room temperature; read-out: Inhibitory activity IC50
Description: The measurement of the catalytic activity of SHP2 is using the surrogate substrate 6,8-difluoro-4-methylumbelliferyl phosphate (DiFMUP) in a prompt fluorescence assay format.[14]^,[22]^,[23] In special, the phosphatase reaction was performed at room temperature in a 384-well black plate (Corning) with a total volume of 20 μL. The assay buffer contained 60 mM HEPES, pH7.2, 75 mM NaCl, 75 mM KCl, 1 mM EDTA, 5 mM DTT, and 0.05% Triton X-100.
After 60 min incubation at room temperature, the surrogate substrate DiFMUP (Thermo, Cat: D6567, 200 μM) was added to the catalytic reaction. After 30 min incubation at room temperature, the fluorescence signal was measured at the excitation and emission wavelengths of 340 nm and 450 nm respectively with a plate reader (Tecan Spark). The curves of the inhibitor dose–response were analysed using normalised IC50 regression curve fitting with control-based normalisation.

IC50 | Structure (SMILES)
0.104 µM | C[C@H]1OCC2(CCN(c3nn4cnc(-c5cccc(Cl)c5Cl)c4c(=O)n3C)CC2)[C@H]1N [PB17-021-01]
0.0389 µM | C[C@H]1OCC2(CCN(c3nn4ccc(-c5cccc(Cl)c5Cl)c4c(=O)n3C)CC2)[C@H]1N [PB17-026-01, 2-((3R,4R)-4-amino-3-methyl-2-oxa-8-azaspiro[4.5]decan-8-yl)-5–(2,3-dichlorophenyl)-3-methylpyrrolo[2,1-f][1,2,4]triazin-4(3H)-one]
0.168 µM | C[C@H]1OCC2(CCN(c3nn4ccc(-c5ccncc5)c4c(=O)n3C)CC2)[C@H]1N [PB17-035-01]
0.645 µM | Cn1c(N2CCC(C)(CN)CC2)nn2ccc(-c3cccc(Cl)c3Cl)c2c1=O [PB17-036-01]
